Assay results reported in PubChem BioAssay AID686998 (Broad Institute, 2013).
Where “and” joins values, the source holds several entries; their conditions need not be identical. Equal values may be shown once. Inconclusive results are not listed. Calls of active or inactive are those of the source.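 Rule for the calls: active = falling signal with fitted half-maximal potency no higher than twice the top valid tested dose; inconclusive = poor fit quality, or flat fit spanning -70% to -30%; inactive = potency over limit, rising signal, or flat fit inside 30%.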

Test system: Cryptococcus neoformans growth, Alamar Blue, 24 h
Test: Cryptococcus neoformans growth inhibition, dose response, Alamar Blue, cherry-picks (AID 686998)

SMILES | IC50
CCCNC(=O)[C@H]1[C@H](CO)[C@H]2Cn3c(cccc3=O)[C@@H]1N2C(=O)Nc1cc(F)ccc1F | 68.5 µM
COC(=O)C1=C(C)N(Cc2ccc(Br)cc2)C(=S)NC1c1cccc(Br)c1 (configuration not stated) | 6.53 µM
O=C(C[C@H]1CC[C@@H]2[C@H](COC[C@H](O)CN2CC2CCOCC2)O1)NCc1ccc(Cl)cc1 | 70 µM
C[C@H]1CN([C@@H](C)CO)C(=O)c2cc(-c3ccccc3)cnc2O[C@@H]1CN(C)C(=O)c1ccccn1 | 42.3 µM
Cc1cccc(C)c1NC(=O)C1(C)CCC(=O)N1CCCn1ccnc1 (configuration not stated) | < 0.26 µM
COC(=O)C1=C(C)N(Cc2ccc(F)cc2)C(=S)NC1c1ccccc1 (configuration not stated) | 29.4 µM
Cc1ccccc1-n1ncc2c(SCC(=O)N3c4ccccc4CC3C)ncnc21 (configuration not stated) | 0.28 µM
CC(C)NC(=O)Nc1ccc2c(c1)C(=O)N([C@@H](C)CO)C[C@@H](C)[C@@H](CN(C)C(=O)NC1CCCCC1)OCCCC[C@H](C)O2 | < 0.26 µM
COc1ccc(CN(C)C[C@H]2Oc3ccc(NS(C)(=O)=O)cc3CC(=O)N([C@@H](C)CO)C[C@H]2C)cc1 | 39.9 µM
CCN1C(=S)N[C@@H](c2cccc(F)c2)C(C(=O)OC)=C1C | > 70 µM (inactive)
O=C(Nc1ccc(N2CCOCC2)cc1N1CCOCC1)c1cccc([N+](=O)[O-])c1 | 67 µM
Cc1ccc(C2CC(c3cccs3)=NN2C(=O)c2ccc(Br)o2)cc1 (configuration not stated) | 0.375 µM
Cc1noc(C)c1NC(=O)N(C)C[C@H]1OCCCC[C@@H](C)Oc2ccc(NC(=O)NC(C)C)cc2C(=O)N([C@H](C)CO)C[C@H]1C | > 70 µM (inactive)
COc1cccc(S(=O)(=O)Nc2ccc3c(c2)[C@H]2C[C@@H](CC(=O)NC4CCCCC4)O[C@@H](CO)[C@H]2O3)c1 | 6.96 µM
CC(=O)c1cccc(NC(=S)NC2CCCCCCC2)c1 | 10.7 µM
C[C@@H]1CN([C@@H](C)CO)S(=O)(=O)c2ccc(C3=CCCC3)cc2O[C@@H]1CN(C)Cc1ccccc1F | 31.3 µM
COC(=O)C1=C(C)N(Cc2ccc(Br)cc2)C(=S)NC1c1ccc(F)cc1 (configuration not stated) | 5.35 µM
CC(C)NC(=O)N(C)C[C@H]1Oc2c(NS(=O)(=O)c3ccc(Cl)cc3)cccc2C(=O)N([C@@H](C)CO)C[C@@H]1C | 41.8 µM
O=C(NC(=S)Nc1ccccc1N1CCOCC1)c1ccccc1F | 20.9 µM
O=C(c1cccnc1)N1C[C@H]2[C@@H](c3ccccc31)[C@@H](CO)N2C(=O)Nc1ccc(F)cc1 | 6.72 µM
C[C@H](CO)N1C[C@H](C)[C@@H](CN(C)C(=O)Nc2ccc3c(c2)OCO3)Oc2ccc(NS(=O)(=O)c3cccs3)cc2C1=O | 64.4 µM
C/C=C/c1ccc([C@@H]2[C@@H](C#N)N(S(=O)(=O)c3cccc(F)c3)[C@@H]2CO)cc1 | 33.6 µM
COc1ccc(C(=O)NC(=S)Nc2ccccc2N2CCOCC2)cc1[N+](=O)[O-] | 26.1 µM

SMILES | IC50
CC(C)c1ccc(OCC(=O)NC(C)c2ccccc2)cc1 (configuration not stated) | 49.5 µM
CCC(C)c1ccc(NC(=S)N2CCN(c3ccccn3)CC2)cc1 (configuration not stated) | 17.5 µM
O=C(CCN1CCCCC1)NCC[C@@H]1CC[C@H](NC(=O)c2ccc(F)cc2)[C@@H](CO)O1 | > 70 µM (inactive)
Cc1noc(C)c1NC(=O)N(C)C[C@H]1Oc2ccc(NC(=O)C3CC3)cc2CC(=O)N([C@@H](C)CO)C[C@H]1C | > 70 µM (inactive)
CCOC(=O)c1c(-c2ccc(-c3ccccc3)cc2)csc1NC(=O)CNCCN(C)C | 15 µM
CC[C@H](C)[C@@H]1NC(=O)CNC(=O)c2csc(n2)[C@H](C(C)(C)O)OC(=O)C(C)(C)[C@H](CCCC(C)(Cl)Cl)OC(=O)c2csc1n2 | 2.16 µM
CCc1nc(N2CCCCC2C)c2oc3ccccc3c2n1 (configuration not stated) | 17.6 µM
C[C@H](CO)N1C[C@H](C)[C@H](CN(C)CC2CCCCC2)Oc2c(NS(C)(=O)=O)cccc2C1=O | 56.4 µM
Cc1ccc(C(=O)Nc2ccc3ncccc3c2)cc1 | 24 µM
COC(=O)C1=C(C)N(Cc2ccc(Cl)cc2)C(=S)NC1c1ccc(Br)cc1 (configuration not stated) | 14.7 µM
O=C(COc1ccc2c(c1)CCC2)NCc1ccc(Cl)cc1 | 34.2 µM
Fc1cccc(CCN2C(=S)NC[C@@H]2Cc2ccccc2)c1 | 7.13 µM
CN1c2ccc(-c3ccc(F)cc3)cc2[C@H]2[C@H](CCN2S(=O)(=O)c2cccc(F)c2)[C@H]1CO | 6.07 µM
CNC[C@H]1Oc2cc(Br)ccc2S(=O)(=O)N([C@H](C)CO)C[C@H]1C | > 70 µM (inactive)
COc1ccc(CN(C)C[C@@H]2Oc3ccc(NC(=O)C4CC4)cc3C(=O)N([C@@H](C)CO)C[C@H]2C)cc1 | 43.2 µM
C[C@H](CO)N1C[C@H](C)[C@H](CN(C)S(=O)(=O)c2cn(C)cn2)Oc2ncc(/C=C/c3ccccc3)cc2C1=O | 60.1 µM
CCOC(=O)NC(=S)Nc1ccc(C(C)(C)C)cc1 | 7.22 µM
CC(C)NC(=O)Nc1ccc2c(c1)C(=O)N([C@H](C)CO)C[C@H](C)[C@H](CN(C)Cc1ccncc1)OCCCC[C@H](C)O2 | 54.6 µM
CCC(=O)Nc1ccc2c(c1)OC[C@H](C)N(C(=O)c1ccc(F)cc1)C[C@@H](C)[C@@H](OC)CN(C)C2=O | 48.2 µM
Cc1noc(C)c1NC(=O)N(C)C[C@@H]1Oc2ccc(NC(=O)NC(C)C)cc2CC(=O)N([C@@H](C)CO)C[C@@H]1C | > 70 µM (inactive)
COc1cc(CO)cc(I)c1O[C@H]1C=C(C(=O)NCCO)C[C@@H](N(CC2CCCCC2)C(=O)c2cc3ccccc3oc2=O)[C@@H]1O | 0.479 µM
O=C(C[C@@H]1CC[C@@H]2[C@H](COC[C@@H](O)CN2C(=O)Nc2ccc(Cl)cc2)O1)NC1Cc2ccccc2C1 | 6.79 µM
COC(=O)C1=C(C)N(Cc2ccccc2)C(=S)NC1c1ccc(Br)cc1 (configuration not stated) | 10.2 µM

SMILES | IC50
COc1cccc(NC(=O)CN2CCN(S(=O)(=O)c3ccc(C(C)C)cc3)CC2)c1 | > 70 µM (inactive)
O=C(CSc1ncnc2c1cnn2-c1cccc(Cl)c1)NCC1CCCO1 (configuration not stated) | 39.1 µM
COC(=O)C1=C(C)N(CC(C)C)C(=S)NC1c1cccc(F)c1 (configuration not stated) | 23.8 µM and 46.8 µM
COC(=O)C1=C(C)N(Cc2ccccc2)C(=S)N[C@H]1c1cccc(F)c1 | 13.7 µM
COc1ccc(N2CCN(C(=O)CSc3ncnc4c3cnn4-c3ccccc3C)CC2)cc1 | 53.8 µM
COc1ccc(CN(C)C[C@@H]2OCCCC[C@@H](C)Oc3ccc(NC(=O)c4ccccc4)cc3C(=O)N([C@H](C)CO)C[C@@H]2C)cc1 | > 70 µM (inactive)
CN1c2ccc(Br)cc2[C@@H]2[C@@H](CCN2C(=O)Cc2cccnc2)[C@@H]1CO | 2.15 µM
COC(=O)C1=C(C)N(CC(C)C)C(=S)NC1c1ccc(Cl)cc1 (configuration not stated) | 9 µM and 18 µM
CO[C@H]1CN(C)C(=O)c2ccc(NC(=O)NC(C)C)cc2OC[C@@H](C)NC[C@H]1C | 1.08 µM
CCCC[C@@H]1CNC(=S)N1CCc1cccc(F)c1 | 1.29 µM
COC(=O)C1=C(C)N(Cc2ccc(Cl)cc2)C(=S)NC1c1ccc(OC)cc1 (configuration not stated) | 22.6 µM
O=C(C[C@H]1CC[C@H]2[C@@H](COC[C@H](O)CN2C(=O)Nc2ccc3c(c2)OCO3)O1)N1CCN(c2ccccc2)CC1 | > 70 µM (inactive)
Cc1ccc2nc(C)c3c(c2c1)OC(C(C)(Cl)Br)C3 (configuration not stated) | 19 µM
Fc1ccc(CNC(=S)NCc2cccc(Cl)c2)cc1 | 12.3 µM
CC(C)COc1ccc(CNC(=S)NCc2ccccc2)cc1 | 5.43 µM
Cc1ccccc1-n1ncc2c(SCC(=O)NCc3cccs3)ncnc21 | 23.4 µM
C[C@H](CO)N1C[C@H](C)[C@H](CN(C)Cc2ccc(Cl)c(Cl)c2)Oc2c(NC(=O)Nc3ccccc3)cccc2C1=O | 10.8 µM
COc1ccc(NC(=O)c2cn(C)c(=O)c3cc(OC)c(OC)cc23)c(OC)c1 | > 70 µM (inactive)
O=C(NC(=S)Nc1ccccc1N1CCCC1)c1ccccc1[N+](=O)[O-] | 1.42 µM
COC(=O)C1=C(C)N(CC(C)C)C(=S)NC1c1ccc(F)cc1 (configuration not stated) | 20.3 µM
COC(=O)C1=C(C)N(Cc2ccc(F)cc2)C(=S)NC1c1ccc(Cl)cc1 (configuration not stated) | 11.4 µM
COc1ccccc1NC(=O)c1cn(C)c(=O)c2cc(OC)c(OC)cc12 | 50.1 µM
C[C@H](CO)N1C[C@H](C)[C@H](CN(C)C(=O)NC2CCCCC2)OCCCC[C@H](C)Oc2ccc(NS(=O)(=O)c3cn(C)cn3)cc2C1=O | 47.7 µM

SMILES | IC50
COc1cc2c(C(=O)N(C)c3cc(Cl)ccc3OC)cn(C)c(=O)c2cc1OC | 0.383 µM
COC(=O)C1=C(C)N(Cc2ccc(F)cc2)C(=S)NC1c1cccc(Cl)c1 (configuration not stated) | 10.6 µM
COC(=O)C1=C(C)N(Cc2ccc(F)cc2)C(=S)NC1c1cccc(OC)c1 (configuration not stated) | 31 µM
CC(NC(=O)COc1ccccc1Cl)c1ccccc1 (configuration not stated) | 0.88 µM
CCCC(=O)N1CCC1(C)C(=O)Nc1cc(C)ccc1C (configuration not stated) | > 70 µM (inactive)
S=C(NCc1ccccc1)NCC1COc2ccccc2O1 (configuration not stated) | 21 µM
COC(=O)C1=C(C)N(Cc2ccccc2)C(=O)N[C@H]1c1cccc(F)c1 | 53.8 µM
CO[C@@H]1CN(C)C(=O)c2ccc(NC(C)=O)cc2OC[C@@H](C)N(C(=O)Cc2cccnc2)C[C@H]1C | > 60 µM (inactive)
CCOc1ccc(CNC(=S)NCc2ccc(OCC)cc2)cc1 | 8.87 µM
CC12CC3CC(C)(C1)CC(C(=O)NC(=S)N1CCCCC1)(C3)C2 | 15.5 µM
Cc1cc(C)c2nc(N3CCN(C(=O)c4cccs4)CC3)sc2c1 | 21.9 µM
Cc1cc(C)c(NC(=O)CN2CCCCCC2)c(C)c1 | 0.858 µM
COc1ccc(CN(C)C[C@@H]2Oc3ccc(NS(C)(=O)=O)cc3CC(=O)N([C@H](C)CO)C[C@H]2C)cc1 | 48.6 µM
C[C@@H]1CN([C@@H](C)CO)C(=O)c2cc(-c3cncnc3)cnc2O[C@H]1CN(C)C(=O)CN1CCOCC1 | 42.4 µM
Cc1cc(C(=O)Nc2cccc3c2O[C@@H](CN(C)S(=O)(=O)c2ccccc2)[C@@H](C)CN([C@@H](C)CO)C3=O)n(C)n1 | 61.2 µM
COCCN1C(=O)CCC1(C)C(=O)Nc1c(C)cccc1C (configuration not stated) | 30.2 µM
Cc1ccc(OCCn2c(=S)[nH]c3ccccc32)c(C(C)C)c1 | 0.913 µM
O=C(C[C@H]1CC[C@H]2[C@@H](COC[C@H](O)CN2Cc2cc(F)cc(F)c2)O1)Nc1nccs1 | > 70 µM (inactive)
COC(=O)C1=C(C)N(Cc2ccc(Cl)cc2)C(=S)NC1c1cccc(OC)c1 (configuration not stated) | 6.55 µM and 8.91 µM
C[C@@H]1CN([C@H](C)CO)C(=O)c2ccccc2-c2ccccc2CO[C@H]1CN(C)S(=O)(=O)c1cccc(C#N)c1 | 66.7 µM
CNC[C@H]1Oc2ncc(C#CCC(C)C)cc2C(=O)N([C@H](C)CO)C[C@H]1C | > 70 µM (inactive)
CNC(=O)CN(c1ccc(OC)cc1)S(=O)(=O)c1ccc(F)cc1 | > 70 µM (inactive)
COC(=O)C1=C(C)N(Cc2ccc(Cl)cc2)C(=S)NC1c1cccc(Cl)c1 (configuration not stated) | 15.1 µM
